Columns and labels:
[1] = system: advanced solid tumors; test: Antitumor response; type: in vivo, human
[2] = system: pelvic or hepatic lesions; test: DCE-MRI functional imaging; type: in vivo, human
[3] = in vivo
[4] = system: c-Kit; details: intact cellular systems; cited from earlier work
[5] = Phase I dose escalation: safety, tolerability, DLT and MTD
[6] = ovarian cancer patient, 400 mg twice a day
[7] = second ovarian cancer patient, 500 mg twice a day

Compound: O=C(Nc1ccc(OC(F)(F)F)cc1)c1sccc1NCc1ccnc2ccccc12 [OSI-930]
- Patients with stable disease as best response ([1]; once a day cohorts, 50 to 1,600 mg): 4 of 12
- Time of confirmed RECIST PR [1, 6]: 24 weeks
- Time of disease progression [1, 6]: 65 weeks
- Time to GCIG CA125 response [1, 6]: 15 weeks
- Median duration of stable disease ([1]; patients with GIST): 126 days
- Further duration of GCIG CA125 response [1, 7]: 12 weeks
- Time to GCIG CA125 response [1, 7]: 12 weeks
- Patients who achieved stable disease ([1]; twice a day cohort): 48%
- Decreases of IAUC and AUC from baseline values ([2]; 4 responding patients, 500 mg twice a day): −4% to −78%
- Decrease in Ktrans and Ve ([2]; day 22, 4 of 6 patients with non-GIST tumors): > 40%
- Cases of grade 2 proteinuria ([3]; human): 1 case
- Grade 3 hypertension (number) ([3]; human): 1
- Patients requiring a dose modification ([3]; human): 33 patients
- Patients who developed grade 1 to 2 PPE ([3]; human): 15%
- Patients with adverse events considered related to OSI-930 ([3]; human): 58%
- Patients with anorexia (reported adverse events) ([3]; human): 6
- Patients with at least 1 grade 3 adverse event of any cause ([3]; human): 50%
- Patients with fatigue (reported adverse events) ([3]; human): 8
- Patients with grade 1 to 2 drug-related fatigue ([3]; human): 3 patients
- Patients with grade 1 to 2 drug-related nausea and anorexia ([3]; human): 2 patients
- Patients with grade 3 PPE ([3]; human): 1 patient
- Patients with nausea (reported adverse events) ([3]; human): 5
- Patients with treatment discontinued for toxicity ([3]; human): 1 patient
- Treatment-related adverse events greater than grade 2 ([3]; human): no treatment-related adverse events greater than grade 2
- Treatment-related fatigue ([3]; human): 50%
- Treatment-related grade 3 fatigue ([3]; human): 6%
- Treatment-related grade 3 hypertension ([3]; human): 6%
- Treatment-related grade 3 nausea ([3]; human): 6%
- Treatment-related grade 3 skin toxicity ([3]; human): 6%
- Patients with grade 1 to 2 drug-related skin and subcutaneous disorders ([3]; human, sc): 3 patients
- Reports of mucositis [3]: no reports of mucositis
- Potency for wild-type versus mutant c-Kit [4]: equal potencies
- Treatment-related AEs (number): Abdominal pain, G1–2 ([5]; 1,600 mg once a day (n = 3)): 1
- Treatment-related AEs (number): Abdominal pain, G3 ([5]; 1,600 mg once a day (n = 3)): 0
- Treatment-related AEs (number): Anorexia, G1–2 ([5]; 1,600 mg once a day (n = 3)): 2
- Treatment-related AEs (number): Anorexia, G3 ([5]; 1,600 mg once a day (n = 3)): 0
- Treatment-related AEs (number): Diarrhea, G1–2 ([5]; 1,600 mg once a day (n = 3)): 0
- Treatment-related AEs (number): Diarrhea, G3 ([5]; 1,600 mg once a day (n = 3)): 0
- Treatment-related AEs (number): Dry skin, G1–2 ([5]; 1,600 mg once a day (n = 3)): 0
- Treatment-related AEs (number): Dry skin, G3 ([5]; 1,600 mg once a day (n = 3)): 0
- Treatment-related AEs (number): Dyspepsia, G1–2 ([5]; 1,600 mg once a day (n = 3)): 0
- Treatment-related AEs (number): Dyspepsia, G3 ([5]; 1,600 mg once a day (n = 3)): 0
- Treatment-related AEs (number): Fatigue, G1–2 ([5]; 1,600 mg once a day (n = 3)): 1
- Treatment-related AEs (number): Fatigue, G3 ([5]; 1,600 mg once a day (n = 3)): 0
- Treatment-related AEs (number): Flatulence, G1–2 ([5]; 1,600 mg once a day (n = 3)): 0
- Treatment-related AEs (number): Flatulence, G3 ([5]; 1,600 mg once a day (n = 3)): 0
- Treatment-related AEs (number): Hair color changes, G1–2 ([5]; 1,600 mg once a day (n = 3)): 0
- Treatment-related AEs (number): Hair color changes, G3 ([5]; 1,600 mg once a day (n = 3)): 0
- Treatment-related AEs (number): Headache, G1–2 ([5]; 1,600 mg once a day (n = 3)): 0
- Treatment-related AEs (number): Headache, G3 ([5]; 1,600 mg once a day (n = 3)): 0
- Treatment-related AEs (number): Hypertension, G1–2 ([5]; 1,600 mg once a day (n = 3)): 0
- Treatment-related AEs (number): Hypertension, G3 ([5]; 1,600 mg once a day (n = 3)): 0
- Treatment-related AEs (number): Muscle spasms, G1–2 ([5]; 1,600 mg once a day (n = 3)): 0
- Treatment-related AEs (number): Muscle spasms, G3 ([5]; 1,600 mg once a day (n = 3)): 0
- Treatment-related AEs (number): Myalgia, G1–2 ([5]; 1,600 mg once a day (n = 3)): 0
- Treatment-related AEs (number): Myalgia, G3 ([5]; 1,600 mg once a day (n = 3)): 0
- Treatment-related AEs (number): Nausea, G1–2 ([5]; 1,600 mg once a day (n = 3)): 1
- Treatment-related AEs (number): Nausea, G3 ([5]; 1,600 mg once a day (n = 3)): 0
- Treatment-related AEs (number): Palmar-plantar erythema, G1–2 ([5]; 1,600 mg once a day (n = 3)): 0
- Treatment-related AEs (number): Palmar-plantar erythema, G3 ([5]; 1,600 mg once a day (n = 3)): 0
- Treatment-related AEs (number): Vomiting, G1–2 ([5]; 1,600 mg once a day (n = 3)): 0
- Treatment-related AEs (number): Vomiting, G3 ([5]; 1,600 mg once a day (n = 3)): 0
- DLTs observed ([5]; once a day dosing schedule, 50 to 1,600 mg): no DLTs
- Treatment-related deaths ([5]; twice a day cohorts): no treatment-related deaths
